US10759796B2, “CXCR4 inhibitors and uses thereof” (X4 Pharmaceuticals, Inc., priority 2016, dated 2020)

Key:
[1] = biological target: CXCR-4 transfected U87 cell line (U87.CXCR4) (Homo sapiens (Human), UniProt P61073); assay: Intracellular CXCL-12-induced calcium mobilization assay (FLIPR); assay type: cell-based; settings: U87.CXCR4 cells, CXCL-12 25-50 ng/mL; read-out: IC50 CXCL-12 Ca2+ flux U87.CXCR4+
Procedure: Example 28: REGA Screening Assay
Intracellular CXCL-12-Induced Calcium Mobilization Assay
Intracellular calcium mobilization induced by chemokines or chemokine-derived peptides were evaluated using a calcium responsive fluorescent probe and a FLIPR system. The CXCR-4 transfected U87 cell line (U87.CXCR4) cells were seeded in gelatine-coated black-wall 96-well plates at 20,000 cells per well and incubated for 12 hours. Cells were then loaded with the fluorescent calcium probe Fluo-2 acetoxymethyl at 4 μM final concentration in assay buffer (Hanks' balanced salt solution with 20 mM HEPES buffer and 0.2% bovine serum albumin, pH 7.4) for 45 min at 37° C. The intracellular calcium mobilization induced by the CXCL-12 (25-50 ng/mL) was then measured at 37° C. by monitoring the fluorescence as a function of time in all the wells simultaneously using a fluorometric imaging plate reader (FLIPR Tetra, Molecular Devices).

[2] = biological target: Jurkat cells expressing CXCR4 (Homo sapiens (Human), UniProt P61073); assay: Chemokine (CXCL12-AF647) binding inhibition assay; settings: CXCL12-AF647 25 ng/mL, read-out: IC50 CXCL-12 binding Jurkat
Procedure: Chemokine (CXCL12-AF647) Binding Inhibition Assay
Jurkat cells expressing CXCR4 were washed once with assay buffer (Hanks' balanced salt solution with 20 mM HEPES buffer and 0.2% bovine serum albumin, pH 7.4) and then incubated for 15 min at room temperature with the test compounds diluted in assay buffer at dose-dependent concentrations. Subsequently, CXCL12-AF647 (25 ng/mL) was added to the compound-incubated cells. The cells were incubated for 30 min at room temperature. Thereafter, the cells were washed twice in assay buffer, fixed in 1% paraformaldehyde in PBS, and analyzed on the FL4 channel of a FACSCalibur flow cytometer equipped with a 635-nm red diode laser (Becton Dickinson, San Jose, Calif., USA).
The percentages of inhibition of CXCL12-AF647 binding were calculated according to the formula: [1−((MFI−MFINC)/(MFIPC−MFINC))]×100 where MFI is the mean fluorescence intensity of the cells incubated with CXCL12-AF647 in the presence of the inhibitor, MFINC is the mean fluorescence intensity measured in the negative control (i.e., autofluorescence of unlabeled cells), and MFIPC is the mean fluorescence intensity of the positive control (i.e., cells exposed to CXCL12-AF647 alone).

in vitro = settings: human, Caco-2, pH 7.4
Procedure: Example 28: Caco-2 Permeability Assay
The goal of this assay was to evaluate the intestinal absorption potential of drug candidates using Caco-2 cell lines.
1. Prewarm Prewarm HBSS Buffer in 37° C. water bath
2. Sonicate Take compounds from −20° C., sonicate for a few minutes (no less than 1 minute)
HBSS buffer with 0.3% DMSO and 5 μM LY: add 150 μL DMSO and 50 μL LY (5 mM) into 50 ml HBSS buffer (pH 7.4).
HBSS buffer with 0.1% DMSO and 5 μM LY: add 50 μL DMSO and 50 μL LY (5 mM) into 50 mL HBSS buffer (pH 7.4).
HBSS buffer with 0.3% DMSO: add 150 μL DMSO into 50 ml HBSS buffer (pH 7.4).
HBSS buffer with 0.1% DMSO: add 50 μL DMSO into 50 ml HBSS buffer (pH 7.4).
Receiver Solution Buffer:
Prepare HBSS buffer with 0.4% DMSO: add 200 μL DMSO into 50 ml HBSS buffer (pH 7.4).
Prepare HBSS buffer with 0.4% DMSO and 5 μM LY: add 200 μL DMSO and 50 μL LY (5 mM) into 50 ml HBSS buffer (pH 7.4).
4. Measure TEER Take cell culture plate out of incubator, wash the cell monolayers with HBSS buffer, and then measure TEER values at Rm temperature. 5. Centrifuge Centrifuge the compound solution (from step 3) at 4000 rpm for 5 min before loading to donor chambers. 6. Dosing Add solution based on the volumes listed in the following table (make sure to take extra 100 μL of donor sample for TO as Backup).
7. Apical LYT0 Samples To determine LY concentration in the apical chember, take 100 μL sample from apical chambers into an opaque plate for LYT0. 8. Prewarm Prewarm apical and basolateral plates at 37° C. for about 5 min, then begin transport by placing the apical plate onto basolateral plate. 9. Incubation Keep the plates in incubator at 37° C. for 90 min. 10. Standard Curve Preparation
For 300 μM compound solution, add 6 μL of compound stock solution into 192 μL of MeOH/H2O (1:1).
Prepare Working Solution in MeOH/H2O (1:1)
3 μL (20×)+57 μL of 0.4% DMSO HBSS+60 μL ACN with IS (Osalmid or Imipramine) - - - 120 μL (1×)
11. Transport Termination Separate the apical plate from the basolateral plate after 90-min incubation.
12. Measure LY Take 100 μL samples from basolateral plate to an opaque plate as LYT90.
13. Measure LY concentrations for LYT0 and LYT90 by Fluorometer (at excitation of 485 nm/emission of 535 nm).
Study details: Test concentration 10 μM
Test systems: Caco-2/HBSS solution
Incubation conditions: 0, 90 min at 37° C.
Sample size: Duplicates (n=2)
Bioanalytical method: LC-MS/MS
For Millicell-24 Cell Culture Plates: surface area of the membrane=0.7 cm^2, VA=0.8 mL (A-to-B) or 0.4 mL (B-to-A)
1. Papp values were calculated based on calculated concentrations.
The compound numbers correspond to the compound numbers in Table 1.

CXCR-4 transfected U87 cell line (U87.CXCR4), sequence (P61073 whole entry): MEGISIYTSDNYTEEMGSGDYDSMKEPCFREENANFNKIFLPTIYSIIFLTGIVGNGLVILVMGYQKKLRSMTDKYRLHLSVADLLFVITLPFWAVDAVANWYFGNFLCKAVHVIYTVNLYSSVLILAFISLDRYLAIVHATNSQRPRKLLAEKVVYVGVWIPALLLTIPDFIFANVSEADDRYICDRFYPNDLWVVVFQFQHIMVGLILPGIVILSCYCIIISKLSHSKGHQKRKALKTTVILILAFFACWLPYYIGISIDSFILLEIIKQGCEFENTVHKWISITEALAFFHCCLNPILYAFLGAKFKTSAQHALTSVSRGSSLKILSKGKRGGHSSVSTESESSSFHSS
Jurkat cells expressing CXCR4, sequence (P61073 whole entry): as above

IC50 [1] [nM]	IC50 [2] [nM]	Papp A→B at 90 min, 10 μM (in vitro) [×10⁻⁶ cm/s]	Papp B→A at 90 min, 10 μM (in vitro) [×10⁻⁶ cm/s]	efflux ratio at 90 min, 10 μM (in vitro)	Compound
≥ 1000	100 to 1000	0.1 to 10	> 30	10 to 30	Cc1cccnc1[C@@H]1CCC[C@H](c2cn3c(N4CCN(C5COC5)CC4)cccc3n2)N1C [Compound I-52]
100 to 1000	0.01 to 100	0.1 to 10	> 30	10 to 30	Cc1cccnc1[C@@H]1CCC[C@H](c2nc3ccccn3c2CN2CCN(C(C)C)CC2)N1C [Compound I-39]
≥ 1000	100 to 1000	0.1 to 10	10 to 30	0.1 to 10	COc1cccnc1[C@@H]1CCC[C@H](c2nc3cccc(N4CCN(C)CC4)n3c2Cl)N1 [Compound I-173]
100 to 1000	0.01 to 100	0.1 to 10	10 to 30	10 to 30	Cc1cccnc1[C@@H]1CCC[C@H](c2nc3ccccn3c2C=C2CCN(C)CC2)N1C [Compound I-83]
0.01 to 100	0.01 to 100	0.1 to 10	10 to 30	0.1 to 10	CCN1CCN(c2cccc3nc([C@H]4CCC[C@@H](c5ncccc5C)N4C)c(COC(C)C)n23)CC1 [Compound I-60]
0.01 to 100	0.01 to 100	0.1 to 10	10 to 30	0.1 to 10	Cc1cccnc1[C@@H]1CCC[C@H](c2nc3cccc(N4CCN(C)CC4)n3c2CO)N1C [Compound I-11]
0.01 to 100	0.01 to 100	0.1 to 10	10 to 30	0.1 to 10	CCN1[C@@H](c2cn3c(N4CCN(C(C)C)CC4)cccc3n2)CCC[C@H]1c1ncccc1C [Compound I-37]
0.01 to 100	0.01 to 100	0.1 to 10	0.1 to 10	0.1 to 10	CCN1CCN(c2cccc3nc([C@H]4CCC[C@@H](c5ncccc5C)N4C)c(Cl)n23)CC1 [Compound I-88]
100 to 1000	0.01 to 100	0.1 to 10	0.1 to 10	0.1 to 10	CN1CCN(c2cccc3nc([C@H]4CCC[C@@H](c5ncccc5C(F)(F)F)N4C)cn23)CC1 [Compound I-80]
0.01 to 100	0.01 to 100	0.1 to 10	> 30	> 30	Cc1cccnc1[C@@H]1CCC[C@H](c2nc3ccccn3c2CN2CCN(C)CC2)N1C [Compound I-38]
≥ 1000	100 to 1000	10 to 30	10 to 30	0.1 to 10	CN1CCN(c2cccc3nc([C@H]4CCC[C@@H](c5ncccc5Cl)N4)cn23)CC12CC2 [Compound I-160]
100 to 1000	0.01 to 100	0.1 to 10	10 to 30	0.1 to 10	C/C=C/c1c([C@H]2CCC[C@@H](c3ncccc3C)N2C)nc2cccc(N3CCN(C)CC3)n12 [Compound I-141]
0.01 to 100	0.01 to 100	0.1 to 10	10 to 30	0.1 to 10	CN1CCN(c2cccc3nc([C@H]4CCC[C@@H](c5ncccc5Cl)N4C)c(CO)n23)CC1 [Compound I-116]
0.01 to 100	0.01 to 100	0.1 to 10	10 to 30	0.1 to 10	CN1CCN(c2cccc3nc([C@H]4CCC[C@@H](c5ncccc5C5CC5)N4)cn23)CC1 [Compound I-179]
≥ 1000	100 to 1000	10 to 30	10 to 30	0.1 to 10	Cc1cccnc1[C@@H]1CCC[C@H](c2nc3ccccn3c2CN2CCOCC2)N1C [Compound I-73]
100 to 1000	0.01 to 100	0.1 to 10	10 to 30	> 30	Cc1cccnc1[C@H]1CCC[C@@H](c2nc3ccccn3c2CCCN(C)C)N1C (stereo in doubt) [Compound I-28]
0.01 to 100	0.01 to 100	0.1 to 10	0.1 to 10	0.1 to 10	Cc1cccnc1[C@@H]1CCC[C@H](c2nc3cccc(N4CCN5CCCC5C4)n3c2Cl)N1C (stereo partly drawn) [Compound I-113]
0.01 to 100	0.01 to 100	0.1 to 10	10 to 30	0.1 to 10	COCc1c([C@H]2CCC[C@@H](c3ncccc3C)N2C)nc2cccc(N3CCN(C)CC3)n12 [Compound I-12]
≥ 1000	100 to 1000	0.1 to 10	10 to 30	> 30	CO[C@@H](c1c([C@H]2CCC[C@@H](c3ncccc3C)N2C)nc2ccccn12)C1CCN(C)CC1 [Compound I-105]
100 to 1000	0.01 to 100	0.1 to 10	10 to 30	0.1 to 10	Cc1cccnc1[C@@H]1CCC[C@H](c2nc3cccc(N4CCN(C)CC4)n3c2COC(C)C)N1C [Compound I-48]
0.01 to 100	0.01 to 100	0.1 to 10	10 to 30	0.1 to 10	CCN1CCN(c2cccc3nc([C@H]4CCC[C@@H](c5ncccc5C)N4C)c(CO)n23)CC1 [Compound I-61]
≥ 1000	100 to 1000	0.1 to 10	0.1 to 10	0.1 to 10	CCN1CCN(c2cccc3nc([C@H]4CCC[C@@H](c5ncccc5C(C)C)N4C)cn23)CC1 [Compound I-111]
0.01 to 100	0.01 to 100	10 to 30	10 to 30	0.1 to 10	CN1[C@@H](c2cn3c(N4CCNC5(CC5)C4)cccc3n2)CCC[C@H]1c1ncccc1Cl [Compound I-159]

Compound	IC50 [1] [nM]	IC50 [2] [nM]	Papp A→B at 90 min, 10 μM (in vitro) [×10⁻⁶ cm/s]	Papp B→A at 90 min, 10 μM (in vitro) [×10⁻⁶ cm/s]	efflux ratio at 90 min, 10 μM (in vitro)
Cc1cccnc1[C@@H]1CCC[C@H](c2cn3c(N4CC5CCC(C4)N5C)cccc3n2)N1C [Compound I-68]	0.01 to 100	0.01 to 100	0.1 to 10	10 to 30	10 to 30
